Values after ≈ are worked out from the molar mass of the structure shown.
What follows are compounds tested on K562 (assay: Cytotoxicity against human K562 cells after 48 hrs by MTT assay). Settings: K562, 48 h.
Assay type: functional, cell-based
For `CC(C)C1=C(O)C(=O)C2=C(C(=O)C(O)=C3C(C)(C)CCC[C@]23C)C1=O`, the IC50 was 3 µg/mL (≈ 8.71 µM).
In the case of `CC(C)C1=C(O)C(=O)C([C@@]2(C)CCCC(C)(C)C2=O)=C(C(=O)O)C1=O` [XANTHANTHUSIN E], the IC50 is reported as 34.3 µg/mL (≈ 98.5 µM).
`O=C1c2c(O)ccc(O)c2C(=O)c2c(NCCNCCO)ccc(NCCNCCO)c21` [MITOXANTRONE] was tested, and the IC50 was 2 µg/mL (≈ 4.5 µM).
Compound `CC(C)C1=C(O)C(=O)[C@@]23O[C@@]2(C(=O)C(O)=C2C(C)(C)CCC[C@@]23C)C1=O` has an IC50 of 13.9 µg/mL (≈ 38.6 µM).
`CC(=O)Oc1c(O)c(C(C)C)c(O)c2c1[C@@]1(C)CCCC(C)(C)C1=C(O)C2=O` showed an IC50 of 2.2 µg/mL (≈ 5.66 µM).
Work on `CC(=O)OCC(C)C1=C(OC(C)=O)C(=O)C2=C(C(=O)C(O)=C3C(C)(C)CCC[C@]23C)C1=O` (stereo partly specified) [XANTHANTHUSIN H] yielded an IC50 of 12.9 µg/mL (≈ 29 µM).

Reference: ChEMBL document CHEMBL1148132, “Abietane diterpenoids from Coleus xanthanthus” (J Nat Prod, 2002)
